# Reference: patent publication US10682319B2, “Necrosis inhibitors” (National Institute of Biological Sciences, Beijing, priority 2014, dated 2020)
# System: HT-29 cells
# Assay: Necrosis assay (TNF-α/Smac mimetic/z-VAD induced necrosis, cell viability by ATP level)
# Type: cell-based
# Conditions: HT-29, TNF-α + Smac mimetic + z-VAD, 24 hrs, ATP level; values given as ranges in nM; read-out: EC50 (inhibition of necrosis in HT-29 cells)
# Description: HT-29 cells were cultured in McCoy's 5 A culture medium (Invitrogen). On day one, HT-29 cells were plated in 96-well assay plates at density of 2,500-3,500 cells per well. On day two, necrosis were induced by adding 20 ng/ml TNF-α (T), 100 nM Smac mimetic (S), and […] z-VAD (Z). At the same time, […] compound from a chemical library of ˜200,000 compounds was delivered into each well. After 24 hrs treatment, cell viability was determined by measuring ATP level using the CellTiter-Glo Luminescent Cell Viability Assay kit. A CellTiter-Glo Assay (Promega) was performed according to the manufacturer's instructions Luminescence was recorded with a PerkinElmer EnSpire Multimode Plate Reader. Survived cells were normalized to those cells treated with DMSO. Nec-1 was used as a positive control for screening necrosis inhibitors. Data are represented as mean±standard deviation of duplicates
# Dose-dependent inhibition of necrosis by the compounds in HT-29 cells were determined by measuring ATP levels as described above.
row,Compound,EC50
1,"CCC(C)(C)C(=O)N(C)Cc1cccc(C#N)c1 [Compound 17, N-(3-cyanobenzyl)-N,2,2-trimethylbutanamide]",1 to 1000 nM
2,"CCC(C)(C)C(=O)N(CCO)Cc1cc(F)cc(F)c1F [Compound 77, N-(2-hydroxyethyl)-2,2-dimethyl-N-(2,3,5-trifluorobenzyl)butanamide]",1 to 1000 nM
3,"CC1CCCC(C)N1C(=O)N(C)Cc1cc(F)cc(F)c1F (stereo not drawn) [Compound 121, N,2,6-trimethyl-N-(2,3,5-trifluorobenzyl)piperidine-1-carboxamide]",1 to 1000 nM
4,"CN(Cc1cc(F)cc(F)c1F)C(=O)C(C)(C)C [Compound S2, N-methyl-N-(2,3,5-trifluorobenzyl)pivalamide]",1 to 1000 nM
5,"CCC(C)(C)C(=O)N(C)Cc1cc(F)cc(F)c1 [Compound 26, N-(3,5-difluorobenzyl)-N,2,2-trimethylbutanamide]",1 to 1000 nM
6,"CCC(C)(C)C(=O)N(C)Cc1cccc(Cl)c1 [Compound 18, N-(3-chlorobenzyl)-N,2,2-trimethylbutanamide]",1 to 1000 nM

# Same assay, conditions: Homo sapiens, HT-29, 24 h, HT-29, TNF-α + Smac mimetic + z-VAD, 24 hrs, ATP level; values given as ranges in uM; read-out: EC50 (inhibition of necrosis in HT-29 cells)
row,Compound,EC50
1,"CN(Cc1cc(F)cc(F)c1F)C(=O)C1(C)CC1 [Compound 80, N,1-dimethyl-N-(2,3,5-trifluorobenzyl)cyclopropanecarboxamide]",1000 to 100000 nM
2,"CN(Cc1ccccc1F)C(=O)C1CC1 [Compound 62, N-(2-fluorobenzyl)-N-methylcyclopropanecarboxamide]",1000 to 100000 nM
3,"CCC(C)(C)C(=O)NCc1ccc(F)cc1F [Compound 7, N-(2,4-difluorobenzyl)-2,2-dimethylbutanamide]",1000 to 10000 nM
4,"CCC(C)(C)C(=O)N(C)Cc1ccc(N2CCCCC2)c([N+](=O)[O-])c1 [Compound 30, N,2,2-trimethyl-N-(3-nitro-4-(piperidin-1-yl)benzyl)butanamide]",1000 to 100000 nM
5,"CCC(C)(C)C(=O)N(C)Cc1ccc(OC)nc1 [Compound 38, N-((6-methoxypyridin-3-yl)methyl)-N,2,2-trimethylbutanamide]",1000 to 100000 nM
6,"CCC(C)(C)C(=O)N(Cc1cccc(F)c1)CC1CC1 [Compound 64, N-(cyclopropylmethyl)-N-(3-fluorobenzyl)-2,2-dimethylbutanamide]",1000 to 100000 nM
7,"COC(C)(C)C(=O)N(C)Cc1cc(F)cc(F)c1F [Compound 67, 2-methoxy-N,2-dimethyl-N-(2,3,5-trifluorobenzyl)propanamide]",1000 to 10000 nM
8,"CN(Cc1cc(F)cc(F)c1F)C(=O)C1(c2ccccc2)CC1 [Compound 82, N-methyl-1-phenyl-N-(2,3,5-trifluorobenzyl)cyclopropanecarboxamide]",1000 to 100000 nM
9,CON(Cc1cc(F)c(F)cc1F)C(=O)C(C)(C)C(C)(F)F [Compound S18],1000 to 100000 nM
10,"CCC(C)(C)C(=O)N(C)Cc1ccncc1F [Compound 36, N-((3-fluoropyridin-4-yl)methyl)-N,2,2-trimethylbutanamide]",1000 to 100000 nM
11,CON(Cc1cc(F)cc(F)c1F)C(=O)C(C)(C)C(C)(F)F [Compound S20],1000 to 100000 nM
12,CCC(C)(C)C(=O)N(C)[C@@H](CO)c1cc(F)cc(F)c1F [Compound 149],1000 to 100000 nM
13,"C#CCN(Cc1ccccc1F)C(=O)C(C)(C)CC [Compound 11, N-(2-fluorobenzyl)-2,2-dimethyl-N-(prop-2-yn-1-yl)butanamide]",1000 to 10000 nM
14,"CCC(C)(C)C(=O)N[C@@H](CO)c1ccccc1 [Compound 109, (R)—N-(2-hydroxy-1-phenylethyl)-2,2-dimethylbutanamide]",1000 to 100000 nM
15,"CCN(Cc1cc(F)cc(F)c1F)C(=O)C1CCCCC1 [Compound 74, N-ethyl-N-(2,3,5-trifluorobenzyl)cyclohexanecarboxamide]",1000 to 100000 nM
16,"CCC(C)(C)C(=O)N(C)Cc1ccncc1 [Compound 34, N,2,2-trimethyl-N-(pyridin-4-ylmethyl)butanamide]",1000 to 100000 nM
17,"CN(Cc1cc(F)c(F)c(F)c1)C(=O)C(C)(C)C [Compound 69, N-methyl-N-(3,4,5-trifluorobenzyl)pivalamide]",1000 to 10000 nM
18,CCC(C)(C)C(=O)N(O)Cc1cccs1 [Compound 136],1000 to 100000 nM
